Assay results reported in article PMC9403976, “Elucidating the path to Plasmodium prolyl-tRNA synthetase inhibitors that overcome halofuginone resistance” (Nature Communications, 2022).
pKd: −log10 of the molar value. Where “and” joins values, the source holds several entries; their conditions need not be identical. Equal entries are not always repeated. Where two headings read alike, the source gives them in different places.

Columns and labels:
[1] = molecular target: HsProRS (Homo sapiens, UniProt P07814); experiment: TR-FRET ligand displacement assay with tracer MAT379 (CoraFluor-1-Halo and anti-His6 antibody formats); format: binding; set-up: made in house; host or cells: E. coli SoluBL-21; settings: for TR-FRET dose-response, normalized signal (SI Fig 11): individual replicates
[2] = molecular target: T1, PfcProRS (Plasmodium falciparum, UniProt Q8I5R7); format: binding; settings: for dose-response signal (normalized), SI Fig 8: single replicates
T1 construct: made in house; host or cells: E. coli SoluBL-21

[3] = system: P. falciparum Dd2-2D4; experiment: P. falciparum asexual blood stage (ABS) growth assay, SYBR Green, 72 h, wild-type parasites; format: cell-based, Plasmodium falciparum; settings: wildtype (Dd2-2D4); 20 μM

HsProRS, sequence (P07814 996-1512): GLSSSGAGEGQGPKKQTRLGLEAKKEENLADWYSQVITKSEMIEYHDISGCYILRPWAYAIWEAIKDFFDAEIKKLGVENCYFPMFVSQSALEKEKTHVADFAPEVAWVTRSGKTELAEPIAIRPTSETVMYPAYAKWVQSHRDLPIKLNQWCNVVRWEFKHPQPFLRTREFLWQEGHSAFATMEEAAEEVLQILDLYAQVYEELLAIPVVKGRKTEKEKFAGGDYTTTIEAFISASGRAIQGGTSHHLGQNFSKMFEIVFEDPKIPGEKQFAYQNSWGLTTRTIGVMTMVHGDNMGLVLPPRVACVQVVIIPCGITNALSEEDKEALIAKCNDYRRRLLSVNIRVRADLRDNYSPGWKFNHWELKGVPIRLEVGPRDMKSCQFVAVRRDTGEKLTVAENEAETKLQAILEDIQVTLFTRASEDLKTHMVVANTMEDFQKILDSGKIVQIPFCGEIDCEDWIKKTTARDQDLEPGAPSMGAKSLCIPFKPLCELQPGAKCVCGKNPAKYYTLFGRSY
T1 sequence (Q8I5R7 249-746): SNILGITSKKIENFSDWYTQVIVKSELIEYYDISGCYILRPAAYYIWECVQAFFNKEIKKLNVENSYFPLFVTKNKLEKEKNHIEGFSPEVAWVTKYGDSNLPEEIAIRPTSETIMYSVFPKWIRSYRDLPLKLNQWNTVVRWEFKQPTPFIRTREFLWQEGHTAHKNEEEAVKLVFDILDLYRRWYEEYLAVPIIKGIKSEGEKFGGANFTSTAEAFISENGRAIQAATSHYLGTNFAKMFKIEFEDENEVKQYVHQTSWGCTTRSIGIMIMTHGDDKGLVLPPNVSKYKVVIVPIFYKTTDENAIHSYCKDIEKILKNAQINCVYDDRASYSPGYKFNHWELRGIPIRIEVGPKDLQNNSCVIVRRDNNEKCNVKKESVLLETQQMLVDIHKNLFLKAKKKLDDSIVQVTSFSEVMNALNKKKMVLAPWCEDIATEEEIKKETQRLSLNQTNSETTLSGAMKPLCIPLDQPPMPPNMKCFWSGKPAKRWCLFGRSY

## O=C(NC1Cc2ccccc2C1)c1nccnc1NC(=O)C1CCOCC1 [compound 18]
[1]; HsProRS (KD [nM]) mean, no added proline/ATP (-)
  Kd: 7400 nM
[1]; HsProRS - best Kd, SI Fig 16a, values on -log scale
  pKd: 6.65
[1]; Log[inhibitor] (M) -5.000
  normalized TR-FRET ligand displacement signal, dose-response replicates (SI Fig 6): 6.96E-01 and 5.92E-01 and 5.43E-01
  TR-FRET dose-response, normalized signal (SI Fig 11): 4.20E-01 and 4.17E-01 and 4.61E-01
[1]; Log[inhibitor] (M) -5.301
  normalized TR-FRET ligand displacement signal, dose-response replicates (SI Fig 6): 8.37E-01 and 8.70E-01 and 8.44E-01
  TR-FRET dose-response, normalized signal (SI Fig 11): 6.08E-01 and 6.33E-01 and 6.32E-01
[1]; Log[inhibitor] (M) -5.601
  normalized TR-FRET ligand displacement signal, dose-response replicates (SI Fig 6): 9.23E-01 and 9.21E-01 and 9.37E-01
  TR-FRET dose-response, normalized signal (SI Fig 11): 7.60E-01 and 7.57E-01 and 7.53E-01
[1]; Log[inhibitor] (M) -5.904
  normalized TR-FRET ligand displacement signal, dose-response replicates (SI Fig 6): 9.48E-01 and 1.01E+00 and 1.07E+00
  TR-FRET dose-response, normalized signal (SI Fig 11): 8.33E-01 and 8.64E-01 and 8.38E-01
[1]; Log[inhibitor] (M) -6.208
  normalized TR-FRET ligand displacement signal, dose-response replicates (SI Fig 6): 1.06E+00 (2×) and 1.00E+00
  TR-FRET dose-response, normalized signal (SI Fig 11): 8.52E-01 and 9.04E-01 and 9.21E-01
[1]; Log[inhibitor] (M) -6.509
  normalized TR-FRET ligand displacement signal, dose-response replicates (SI Fig 6): 1.01E+00 and 1.02E+00 and 9.62E-01
  TR-FRET dose-response, normalized signal (SI Fig 11): 9.56E-01 and 9.24E-01 and 9.57E-01
[1]; Log[inhibitor] (M) -6.796
  normalized TR-FRET ligand displacement signal, dose-response replicates (SI Fig 6): 9.72E-01 and 9.92E-01 and 1.02E+00
  TR-FRET dose-response, normalized signal (SI Fig 11): 9.31E-01 (2×) and 9.72E-01
[1]; Log[inhibitor] (M) -7.108
  normalized TR-FRET ligand displacement signal, dose-response replicates (SI Fig 6): 9.59E-01 and 8.74E-01 and 9.90E-01
  TR-FRET dose-response, normalized signal (SI Fig 11): 9.27E-01 and 9.12E-01 and 9.11E-01
[1]; Log[inhibitor] (M) -7.409
  normalized TR-FRET ligand displacement signal, dose-response replicates (SI Fig 6): 9.78E-01 and 1.02E+00 and 1.05E+00
  TR-FRET dose-response, normalized signal (SI Fig 11): 9.66E-01 (2×) and 9.82E-01
[1]; Log[inhibitor] (M) -7.710
  normalized TR-FRET ligand displacement signal, dose-response replicates (SI Fig 6): 9.30E-01 and 1.05E+00 and 1.11E+00
  TR-FRET dose-response, normalized signal (SI Fig 11): 9.81E-01 and 9.38E-01 and 9.42E-01
[1]; Log[inhibitor] (M) -8.000
  normalized TR-FRET ligand displacement signal, dose-response replicates (SI Fig 6): 9.51E-01 and 9.79E-01 and 1.05E+00
  TR-FRET dose-response, normalized signal (SI Fig 11): 9.53E-01 and 9.52E-01 and 9.49E-01
[1]; Log[inhibitor] (M) -8.301
  normalized TR-FRET ligand displacement signal, dose-response replicates (SI Fig 6): 9.09E-01 and 9.22E-01 and 9.59E-01
  TR-FRET dose-response, normalized signal (SI Fig 11): 9.20E-01 and 1.00E+00 and 8.97E-01
[1]; Log[inhibitor] (M) -8.602
  normalized TR-FRET ligand displacement signal, dose-response replicates (SI Fig 6): 9.55E-01 and 9.72E-01 and 1.02E+00
  TR-FRET dose-response, normalized signal (SI Fig 11): 9.41E-01 and 9.60E-01 and 9.87E-01
[1]; Log[inhibitor] (M) -9.000
  normalized TR-FRET ligand displacement signal, dose-response replicates (SI Fig 6): 9.17E-01 and 1.01E+00 and 9.46E-01
  TR-FRET dose-response, normalized signal (SI Fig 11): 9.26E-01 and 9.53E-01 and 9.30E-01
[1]; Log[inhibitor] (M) -9.301
  normalized TR-FRET ligand displacement signal, dose-response replicates (SI Fig 6): 9.60E-01 and 1.07E+00 and 9.73E-01
  TR-FRET dose-response, normalized signal (SI Fig 11): 9.44E-01 and 9.56E-01 and 9.33E-01
[2]; Log[inhibitor] (M) -5.000
  dose-response signal (normalized), SI Fig 8: 3.01E-01 and 4.11E-01 and 4.27E-01
[2]; Log[inhibitor] (M) -5.301
  dose-response signal (normalized), SI Fig 8: 6.53E-01 and 6.16E-01 and 6.73E-01
[2]; Log[inhibitor] (M) -5.601
  dose-response signal (normalized), SI Fig 8: 8.02E-01 and 8.42E-01 and 8.63E-01
[2]; Log[inhibitor] (M) -5.904
  dose-response signal (normalized), SI Fig 8: 1.01E+00 and 1.00E+00 and 9.12E-01
[2]; Log[inhibitor] (M) -6.208
  dose-response signal (normalized), SI Fig 8: 1.03E+00 and 1.00E+00 and 9.60E-01
[2]; Log[inhibitor] (M) -6.509
  dose-response signal (normalized), SI Fig 8: 1.16E+00 and 9.38E-01 and 1.04E+00
[2]; Log[inhibitor] (M) -6.796
  dose-response signal (normalized), SI Fig 8: 9.96E-01 and 9.92E-01 and 1.04E+00
[2]; Log[inhibitor] (M) -7.108
  dose-response signal (normalized), SI Fig 8: 1.02E+00 and 9.74E-01 and 9.75E-01
[2]; Log[inhibitor] (M) -7.409
  dose-response signal (normalized), SI Fig 8: 1.01E+00 (2×) and 1.08E+00
[2]; Log[inhibitor] (M) -7.710
  dose-response signal (normalized), SI Fig 8: 9.82E-01 and 1.05E+00 and 9.42E-01
[2]; Log[inhibitor] (M) -8.000
  dose-response signal (normalized), SI Fig 8: 1.03E+00 and 1.10E+00 and 9.98E-01
[2]; Log[inhibitor] (M) -8.301
  dose-response signal (normalized), SI Fig 8: 9.51E-01 and 1.13E+00 and 9.71E-01
[2]; Log[inhibitor] (M) -8.602
  dose-response signal (normalized), SI Fig 8: 1.03E+00 and 9.75E-01 and 1.04E+00
[2]; Log[inhibitor] (M) -9.000
  dose-response signal (normalized), SI Fig 8: 9.05E-01 and 1.01E+00 and 9.83E-01
[2]; Log[inhibitor] (M) -9.301
  dose-response signal (normalized), SI Fig 8: 9.17E-01 and 9.20E-01 and 9.09E-01
[2]; SI Fig 16a, values on -log scale
  PfcProRS -- best Kd: 5.799
[3]
  % signal at 20 μM, wildtype (Dd2-2D4): 108%
